Test results as given in PMC6511404 (Biochemistry, 2019).

Tests used:
[1] = molecular target: T1, E. coli enolase (Escherichia coli, UniProt P0A6P9); assay: X-ray crystal structure, […] Å; format: binding
Target sequence in this assay (P0A6P9 whole entry): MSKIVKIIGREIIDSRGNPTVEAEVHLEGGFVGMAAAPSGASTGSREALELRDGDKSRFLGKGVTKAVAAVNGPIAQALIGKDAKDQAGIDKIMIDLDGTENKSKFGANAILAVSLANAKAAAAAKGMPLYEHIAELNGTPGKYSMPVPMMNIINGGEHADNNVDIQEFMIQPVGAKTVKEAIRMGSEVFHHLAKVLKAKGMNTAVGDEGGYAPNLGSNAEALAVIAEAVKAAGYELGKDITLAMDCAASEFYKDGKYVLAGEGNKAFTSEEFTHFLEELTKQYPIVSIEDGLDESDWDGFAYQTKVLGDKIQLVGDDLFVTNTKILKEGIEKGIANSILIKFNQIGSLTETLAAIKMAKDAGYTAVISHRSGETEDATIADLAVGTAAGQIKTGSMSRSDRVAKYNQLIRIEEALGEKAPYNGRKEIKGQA

[2] = molecular target: T1, E. coli enolase; assay: enolase assay, % inhibition at […]; format: biochemical; conditions: read-out: % inhibition at 20 μM
Target sequence in this assay (P0A6P9 2-432): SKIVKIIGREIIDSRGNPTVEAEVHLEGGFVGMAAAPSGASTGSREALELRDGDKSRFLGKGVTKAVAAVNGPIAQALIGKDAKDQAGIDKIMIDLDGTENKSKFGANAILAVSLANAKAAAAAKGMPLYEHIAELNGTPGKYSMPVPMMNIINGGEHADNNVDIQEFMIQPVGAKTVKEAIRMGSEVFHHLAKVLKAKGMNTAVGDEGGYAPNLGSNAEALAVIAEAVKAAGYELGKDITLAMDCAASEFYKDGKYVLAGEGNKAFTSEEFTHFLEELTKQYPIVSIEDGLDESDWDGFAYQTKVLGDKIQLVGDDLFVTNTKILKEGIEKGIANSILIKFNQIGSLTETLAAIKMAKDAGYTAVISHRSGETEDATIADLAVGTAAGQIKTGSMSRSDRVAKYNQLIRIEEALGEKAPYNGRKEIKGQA

SMILES	X-ray crystal structure, 1.8 Å [1]	inhibition at 20 µM [2] [%]
O=C(O)C(CO)OP(=O)(O)O (centres unmarked) [2-PGA]	we observe a fully occupied active site with 2-PGA and two Mg-ions bound (PDB 6BFy)	
NCCOCCOCCNC(=O)Cc1ccc(Nc2nc(NCc3ccc(F)cc3)nc(NCC3CCCCC3)n2)cc1 [compound 41, ENOblock]		41
